Results as given in patent US4473544A, “Radio-iodine-labelled omega phenyl fatty acids” (priority 1979, dated 1984).

Experiments:
[1] = Renal excretion and extracellular distribution of beta-oxidation degradation products; assay type: in vivo; settings: products of beta-oxidation of radio-iodine-labelled phenyl fatty acids
Text: We have now discovered radio-iodine-labelled omega-phenyl fatty acids, particularly p-I123 -omega-phenyl pentadecanoic acid and its use, to image body organs such as the heart and liver. Through the use of these novel agents, the disadvantages associated with the use of omega-iodine fatty acids, e.g., injecting radioactive iodide as an internal standard and making the necessary corrections, can be completely avoided.
On degradation via beta-oxidation of the iodinated phenyl fatty acid of the invention, the radioactive residue produced is not iodide, but rather iodinated benzoic or iodinated phenylacetic acid. […] Tests in mice have proven that the residual activity in the blood is 2% of the injected dose per gram of blood.

[2] = stated as known; cited from earlier work

Substance: iodophenylacetic acid
- distribution throughout the extracellular fluid [1]: does not occur
- excretion by the kidneys [1]: rapidly and quantitatively excreted by the kidneys
- excretion from the body via the kidneys [2]: rapidly excreted from the body via the kidneys
